# US20250032788A1, “COMPOSITIONS AND METHODS FOR TREATING WITH A COMBINATION OF ALTERNATING ELECTRIC FIELDS AND DNA-DEPENDENT PROTEIN KINASE INHIBITORS” (NOVOCURE GMBH, priority 2023, published 2025)
# “Also recorded” adds a separate entry of the source.
# Legend:
# Type in all cases: cell-based
# A549 cells [1] = experiment: Concomitant TTFields and inhibitor: cell count, colony formation, annexin V/7AAD apoptosis, A549; conditions: for interaction of co-application of TTFields and inhibitor: summary statement
# Procedure: In these experiments 15,000 of A549 cells/dish were seeded in inovitro dishes and incubated overnight to allow cell attachment. The cells were then treated with TTFields (0.97V/cm RMS, 150 kHz, 72 h), alone or with the addition of different concentrations of nedisertib, Efficacy was measured by analyzing cell count by flow cytometer (Guava easy Cyte HT), colony formation, and apoptosis induction by annexin V/7AAD staining. The overall effect was calculated by multiplying cell count with colony formation.
# In these experiments 15,000 of A549 cells/dish were seeded in inovitro dishes and incubated overnight to allow cell attachment. […] Efficacy was measured by analyzing cell count by flow cytometer (Guava easy Cyte HT), colony formation, and apoptosis induction by annexin V/7AAD staining. The overall effect was calculated by multiplying cell count with colony formation.
# H1299 cells [2] = experiment: Concomitant TTFields and inhibitor: cell count, colony formation, annexin V/7AAD apoptosis, H1299; conditions: TTFields 0.97 V/cm RMS, 150 kHz, 72 h
# Procedure: In these experiments 15,000 of H1299 cells/dish were seeded in inovitro dishes and incubated overnight to allow cell attachment. The cells were then treated with TTFields (0.97 V/cm RMS, 150 KHz, 72 h), alone or with the addition of different concentrations of nedisertib. Efficacy was measured by analyzing cell count by flow cytometer (Guava easy Cyte HT), colony formation, and apoptosis induction by annexin V/7AAD staining. The overall effect was calculated by multiplying cell count with colony formation.
# In these experiments 15,000 of H1299 cells/dish were seeded in inovitro dishes and incubated overnight to allow cell attachment. […] Efficacy was measured by analyzing cell count by flow cytometer (Guava easy Cyte HT), colony formation, and apoptosis induction by annexin V/7AAD staining. The overall effect was calculated by multiplying cell count with colony formation.
# H1299 cells [3] = experiment: Inhibitor titration, cell count by flow cytometer, H1299; conditions: 72 hr, no TTFields
# Procedure: (§1) This work was began with the titration of nedisertib. For these experiments 15,000 of A549 or H1299 cells/dish were seeded in 12-well plate and incubated overnight to allow cell attachment. The cells were then treated with various concentrations of nedisertib for 72 hr. The remaining cells were counted by flow cytometer (Guava easyCyte HT) (FIG. 11). […] For these experiments 15,000 of A549 or H1299 cells/dish were seeded in 12-well plates and incubated overnight to allow cell attachment. […] The remaining cells were counted by flow cytometer (Guava easy Cyte HT).
# A549 cells [4] = experiment: Cell cycle distribution by flow cytometer, A549; conditions: for change in the sub G1 phase / cell cycle distribution, concomitant treatment with TTFields: 150 kHz; for cell cycle distribution, concomitant treatment with TTFields: different times
# Procedure: The mechanism of action of the concomitant treatment was investigated and cell cycle analysis was performed. In these experiments 15,000 of A549 cells/dish were seeded in inovitro dishes and incubated overnight to allow cell attachment. The cells were then treated with TTFields (0.97 V/cm RMS. 150 kHz) for different times, alone or with the addition of 6 μM of nedisertib (FIG. 14). Cell cycle distribution was performed for each treatment alone and for the concomitant treatments using the Cytek® Northern Lights™ flow cytometer.
# In these experiments, 15,000 of A549 cells/dish were seeded in inovitro dishes and incubated overnight to allow cell attachment. […] Cell cycle distribution was performed for each treatment alone and for the concomitant treatments using the Cytek® Northern Lights™ flow cytometer.
# A549 cells [5] = experiment: Inhibitor titration, cell count by flow cytometer, A549; conditions: 72 hr, no TTFields
# Procedure: as §1
# H1299 cells [6] = experiment: Cell cycle distribution by flow cytometer, H1299; conditions: 150 kHz, different times
# Procedure: Similar results to the A549 cells were obtained in the H1299 cell line, where the concomitant treatment results in G1 arrest (FIG. 15). In these experiments 15,000 of H1299 cells/dish were seeded in inovitro dishes and incubated overnight to allow cell attachment. The cells were then treated with TTFields (0.97 V/cm RMS. 150 kHz) for different times, alone or with the addition of 6.25 μM of nedisertib. Cell cycle distribution was performed for each treatment alone and for the concomitant treatments using the Cytek® Northern Lights™ flow cytometer.
# Similar results were obtained in the H1299 cell line, where the concomitant treatment results in G1 arrest (FIG. 20). In these experiments 15,000 of H1299 cells/dish were seeded in inovitro dishes and incubated overnight to allow cell attachment. […] Cell cycle distribution was performed for each treatment alone and for the concomitant treatments using the Cytek® Northern Lights™ flow cytometer.
# DNA-PK = target: T1, DNA-PK (Homo sapiens, UniProt P78527); experiment: Western blot of DNA-PK autophosphorylation (pS2056) after radiation in primary glioma stem-like cells; conditions: VX984 250 nM, radiation 5 Gy, CX18 edge 2, CX18 core 1, OX5 edge and OX5 core
# T1 construct: primary glioma stem-like cells (GSCs) treated with DNA-PKi or IR alone or in combination; endogenous in cells; host or cells: CX18 core 1 / edge 2 and OX5 core / edge primary glioma stem-like cells
# [7] = tested on: CX18 edge 2, CX18 core 1, OX5 edge and OX5 core primary glioblastoma cells; experiment: Clonogenic survival assay with TTFields, VX984 and radiation in 3D Alvetex culture; conditions: VX984 250 nM, 1 hr pre-treatment, TTFields 200 kHz, 72 hr, radiation, n=3
# Procedure: Clonogenic survival assays of cells pre-treated with VX984 (250 nM, 1 hr) before TTFields incubation (200 kHz, 72 hr) in CX18 edge 2, CX18 core 1, OX5 edge and OX5 core cells. n=3, statistical significance denoted through ANOVA one-way analysis. Representative images of cell death post TTFields treatment in CX18 edge 2), CX18 core 2, OX5 edge and OX5 core cells.
# FIG. 6 is a table with a summary of the survival data of TTFields alongside VX984 and radiation. The average intratumoural survival fractions (INTRA); OX5 core vs edge and CX18 core vs edge and the average intertumoural survival fraction; OX5 INTRA vs CX18 INTRA are shown. Bliss indices are calculated to ascertain if cell death is synergistic or addictive using the survival fraction product of DMSO+TTF and Combo−TTF as a ratio against Combo+TTF. Ratios<1.1 are seen as additive cell death whereas>1.1 is synergistic.
# [8] = TTFields 0.97 V/cm RMS, 150 kHz, 72 h, different concentrations
# [9] = 0.11 μM CC-115, TTFields 0.97 V/cm RMS
# [10] = 6 μM nedisertib, TTFields 0.97 V/cm RMS
compound,measurement,setting,value
CCN1C(=O)CNc2ncc(-c3ccc(-c4nc[nH]n4)nc3C)nc21 [CC-115],levels of apoptosis at the concentration used for cell cycle analysis,A549 cells [1]; 0.11 μM CC-115,low levels of apoptosis
same,overall effect (cell count multiplied by colony formation) of inhibitor with TTFields,A549 cells [1]; [8],synergistically enhanced; also recorded: enhance
same,interaction of co-application of TTFields and inhibitor,A549 cells [1],synergistic interaction
same,overall effect (cell count multiplied by colony formation) of inhibitor with TTFields,H1299 cells [2]; different concentrations,additive overall effect; also recorded: enhance
same,IC50 (remaining cells counted),H1299 cells [3],much lower than that of nedisertib; also recorded: higher than that of A549
same,change in the sub G1 phase,A549 cells [4]; [9],don't see a significant change
same,"cell cycle distribution, concomitant treatment with TTFields",A549 cells [4]; [9],induced G1 arrest and a decreased number of s-phase cells; also recorded: promotes cell cycle arrest
same,IC50 (remaining cells counted),A549 cells [5],much lower than that of nedisertib
same,"cell cycle distribution, concomitant treatment with TTFields","H1299 cells [6]; 0.3125 μM CC-115, TTFields 0.97 V/cm RMS",G1 arrest; also recorded: promotes cell cycle arrest
COc1ccc([C@@H](O)c2cc(-c3ncnc4cc(N5CCOCC5)ccc34)c(F)cc2Cl)nn1 [Nedisertib],levels of apoptosis at the concentration used for cell cycle analysis,A549 cells [1]; 6 μM nedisertib,low levels of apoptosis
same,apoptotic effect of the concomitant treatment (annexin V/7AAD),"A549 cells [1]; TTFields 0.97 V/cm RMS, 150 kHz, 72 h",only significant in the higher doses
same,cytotoxic effect (cell count) of inhibitor with TTFields,A549 cells [1]; [8],synergistically enhanced; also recorded: enhance
same,overall effect (cell count multiplied by colony formation) of inhibitor with TTFields,A549 cells [1]; [8],synergistically enhanced; also recorded: enhance
same,interaction of co-application of TTFields and inhibitor,A549 cells [1],synergistic interaction
same,apoptotic effect of the concomitant treatment (annexin V/7AAD),H1299 cells [2],only significant in the higher doses
same,interaction of concomitant treatment of TTFields and inhibitor,H1299 cells [2],additive interaction
same,cytotoxic effect (cell count) of inhibitor with TTFields,H1299 cells [2]; different concentrations,enhance
same,overall effect (cell count multiplied by colony formation) of inhibitor with TTFields,H1299 cells [2]; different concentrations,enhance
same,interaction of concomitant treatment of TTFields and inhibitor,H1299 cells [2]; listed as nedisertib,additive effect
same,IC50 (remaining cells counted),H1299 cells [3],higher than that of A549
same,change in the sub G1 phase,A549 cells [4]; [10],don't see a significant change
same,"cell cycle distribution, concomitant treatment with TTFields",A549 cells [4]; [10],highest level of arrest; also recorded: promotes cell cycle arrest
same,"cell cycle distribution, inhibitor alone","A549 cells [4]; 6 μM nedisertib, at most time points",induce G1 arrest and a decreased number of s-phase cells
same,"cell cycle distribution, concomitant treatment with TTFields","H1299 cells [6]; 6.25 μM nedisertib, TTFields 0.97 V/cm RMS",G1 arrest; also recorded: promotes cell cycle arrest
VX984,pDNAPK (pS2056) signal in response to radiation,DNA-PK,depletion of pDNAPK (pS2056) signal
same,glioblastoma cell death (clonogenic survival),[7],enhances glioblastoma cell death by radiosensitisation
